For 28 compounds, IC50 results are on record in US20160237059A1, “HETEROCYCLIC SUBSTITUTED TRIFLUOROMETHYL PYRIMIDINONES AND THEIR USE” (BAYER PHARMA AKTIENGESELLSCHAFT, priority 2013, published 2016).

The target of test [1] is T1, human CCR2 (Homo sapiens, UniProt P41597).
T1 construct: host or cells: Chem-1 cell line
T1 sequence (P41597 1-360 isoform P41597-2): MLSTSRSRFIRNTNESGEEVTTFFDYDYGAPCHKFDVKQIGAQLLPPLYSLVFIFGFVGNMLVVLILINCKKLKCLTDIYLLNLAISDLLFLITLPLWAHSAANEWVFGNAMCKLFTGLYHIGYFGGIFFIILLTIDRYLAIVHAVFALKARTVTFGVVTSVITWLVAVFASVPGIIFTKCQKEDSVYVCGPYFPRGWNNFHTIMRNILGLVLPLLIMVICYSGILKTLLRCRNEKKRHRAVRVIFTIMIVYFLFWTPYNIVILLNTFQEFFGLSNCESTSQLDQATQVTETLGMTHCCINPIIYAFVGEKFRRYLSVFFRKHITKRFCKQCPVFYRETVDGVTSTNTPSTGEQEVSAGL
The test is described as follows: Functional Ca2+ release test (B-1). Format: cell-based. Conditions: Chem-1 cell line transfected with human CCR2; 50% inhibition of the MCP-1 effect, MCP-1 at EC50 (about 5 nM); in some cases means of several determinations. In outline: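 Chem-1 cells expressing human CCR2, loaded with Fluo-4 for 60 min at 37° C, were preincubated 10 min with compound (10-point, 1:3.16 dilutions), then stimulated with MCP-1 at its predetermined EC50 (about 5 nM). Ca2+ release was monitored for 120 s. IC50 came from a 4-parameter Hill fit.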

In test [2] the target is T2, murine CCR2 (Mus musculus, UniProt P51683).
T2 construct: host or cells: U2OS β-arrestin cell line
The experiment in a line: Functional β-arrestin recruiting test with human MCP-1 (B-2a). Format: cell-based. Conditions: U2OS β-arrestin cell line transfected with murine CCR2; agonist human MCP-1 at EC50 (about 3 nM); in some cases means of several determinations. In outline:
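Antagonist mode in U2OS cells expressing murine CCR2, read by PathHunter β-galactosidase complementation luminescence. Cells pre-incubated 10 min with 10-point compound dilutions (1:3.16 steps), then stimulated with human MCP-1 at its EC50 (usually about 3 nM) for 90 min at 37° C.; IC50 from 4-parameter logistic fit.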
On the technique in general: Arrestin recruitment assays detect the binding of arrestin to an activated receptor.

T2 sequence (P51683 whole entry): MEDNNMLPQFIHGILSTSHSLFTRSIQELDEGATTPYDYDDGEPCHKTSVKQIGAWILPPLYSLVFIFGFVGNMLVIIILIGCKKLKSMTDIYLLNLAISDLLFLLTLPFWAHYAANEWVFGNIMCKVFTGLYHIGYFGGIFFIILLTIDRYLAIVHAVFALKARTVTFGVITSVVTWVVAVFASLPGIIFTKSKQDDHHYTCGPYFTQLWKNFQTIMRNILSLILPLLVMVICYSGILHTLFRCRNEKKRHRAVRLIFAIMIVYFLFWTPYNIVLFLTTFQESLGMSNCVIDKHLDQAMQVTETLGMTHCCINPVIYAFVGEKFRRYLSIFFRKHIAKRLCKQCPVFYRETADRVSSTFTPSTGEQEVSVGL

As for `O=c1[nH]c(-c2noc(C3CC3)n2)nc(C(F)(F)F)c1Oc1ccc(Cl)c(Cl)c1` [Example 82, 2-(5-cyclopropyl-1,2,4-oxadiazol-3-yl)-5-(3,4-dichlorophenoxy)-6-(trifluoromethyl)pyrimidin-4(3H)-one x N,N-diisopropylethylamine], the IC50 was 19 nM in test [1] and 150 nM in test [2].
Taken in the same sequence, the figures for `O=c1[nH]c(-c2noc(C(F)(F)F)n2)nc(C(F)(F)F)c1Oc1ccc(Cl)c(Cl)c1` [Example 84, 5-(3,4-Dichlorophenoxy)-6-(trifluoromethyl)-2-[5-(trifluoromethyl)-1,2,4-oxadiazol-3-yl]pyrimidin-4(3H)-one] were 9.2 nM and 86 nM.
The matching figures for `N=c1[nH]c(-c2nc(C(F)(F)F)c(Oc3ccc(Cl)c(Cl)c3)c(=O)[nH]2)no1` [Example 85, 5-(3,4-Dichlorophenoxy)-2-(5-imino-4,5-dihydro-1,2,4-oxadiazol-3-yl)-6-(trifluoromethyl)pyrimidin-4(3H)-one]: 31 nM and 96 nM.
The matching figures for `O=c1[nH]c(-c2nc(C(F)(F)F)c(Oc3ccc(Cl)c(Cl)c3)c(=O)[nH]2)ns1` [Example 86, 5-(3,4-Dichlorophenoxy)-2-(5-oxo-4,5-dihydro-1,2,4-thiadiazol-3-yl)-6-(trifluoromethyl)pyrimidin-4(3H)-one]: 7.7 nM and 100 nM.
As for `CC1(C)NC(c2nc(C(F)(F)F)c(Oc3ccc(Cl)c(C(F)(F)F)c3)c(=O)[nH]2)=NO1` [Example 87, 5-[4-Chloro-3-(trifluoromethyl)phenoxy]-2-(5,5-dimethyl-4,5-dihydro-1,2,4-oxadiazol-3-yl)-6-(trifluoromethyl)pyrimidin-4(3H)-one], the IC50 in test [1] was 14 nM; in test [2], 54 nM.
The matching figures for `O=C(O)c1cc(O)n(-c2nc(C(F)(F)F)c(Cc3ccc(Cl)c(Cl)c3)c(=O)[nH]2)n1` [Example 88, 1-[5-(3,4-Dichlorobenzyl)-6-oxo-4-(trifluoromethyl)-1,6-dihydropyrimidin-2-yl]-5-hydroxy-H-pyrazole-3-carboxylic acid]: 18 nM and 6100 nM.
The matching figures for `O=c1[nH]nc(Cc2nc(C(F)(F)F)c(Cc3ccc(Cl)c(Cl)c3)c(=O)[nH]2)o1` [Example 89, 5-(3,4-Dichlorobenzyl)-2-[(5-oxo-4,5-dihydro-1,3,4-oxadiazol-2-yl)methyl]-6-(trifluoromethyl)pyrimidin-4(3H)-one]: 11 nM and 370 nM.
`O=c1[nH]nc(Cc2nc(C(F)(F)F)c(Cc3ccc(Cl)c(Cl)c3)c(=O)[nH]2)[nH]1` [Example 90, 5-(3,4-Dichlorobenzyl)-2-[(5-oxo-4,5-dihydro-1H-1,2,4-triazol-3-yl)methyl]-6-(trifluoromethyl)pyrimidin-4(3H)-one]: the values for the IC50 in test [1] and in test [2] were 58 nM and 620 nM, respectively.
The matching figures for `Cc1noc(Cc2nc(C(F)(F)F)c(Cc3ccc(Cl)c(Cl)c3)c(=O)[nH]2)n1` [Example 91, 5-(3,4-Dichlorobenzyl)-2-[(3-methyl-1,2,4-oxadiazol-5-yl)methyl]-6-(trifluoromethyl)pyrimidin-4(3H)-one]: 22 nM and 270 nM.
The matching figures for `O=c1[nH]c(Cc2ncn[nH]2)nc(C(F)(F)F)c1Cc1ccc(Cl)c(Cl)c1` [Example 92, 5-(3,4-dichlorobenzyl)-2-(1H-1,2,4-triazol-5-ylmethyl)-6-(trifluoromethyl)pyrimidin-4(3H)-one]: 57 nM and 220 nM.
Taken in the same sequence, the figures for `O=c1[nH]c(Cc2ccncc2)nc(C(F)(F)F)c1Cc1ccc(Cl)c(Cl)c1` [Example 93, 5-(3,4-dichlorobenzyl)-2-(pyridin-4-ylmethyl)-6-(trifluoromethyl)pyrimidin-4(3H)-one] were 83 nM and 370 nM.
As to `O=c1[nH]c(Cc2ccccn2)nc(C(F)(F)F)c1Cc1ccc(Cl)c(Cl)c1` [Example 94, 5-(3,4-dichlorobenzyl)-2-(pyridin-2-ylmethyl)-6-(trifluoromethyl)pyrimidin-4(3H)-one], the IC50 in test [1] amounted to 90 nM; in test [2] it was 420 nM.
The matching figures for `O=c1[nH]c(Cc2ccno2)nc(C(F)(F)F)c1Cc1ccc(Cl)c(Cl)c1` [Example 96, 5-(3,4-dichlorobenzylylmethyl)-6-(trifluoromethyl)pyrimidin-4(3H)-one]: 30 nM and 160 nM.
The matching figures for `O=c1[nH]c(Cc2ccsc2)nc(C(F)(F)F)c1Cc1ccc(Cl)c(Cl)c1` [Example 97, 5-(3,4-dichlorobenzyl)-2-(3-thienylmethyl)-6-(trifluoromethyl)pyrimidin-4(3H)-one]: 100 nM and 490 nM.
The matching figures for `O=c1[nH]c(Cc2cccnc2)nc(C(F)(F)F)c1Cc1ccc(Cl)c(Cl)c1` [Example 98, 5-(3,4-dichlorobenzyl)-2-(pyridin-3-ylmethyl)-6-(trifluoromethyl)pyrimidin-4(3H)-one]: 120 nM and 460 nM.
Take `Cc1n[nH]c(Cc2nc(C(F)(F)F)c(Cc3ccc(Cl)c(Cl)c3)c(=O)[nH]2)n1` [Example 99, 5-(3,4-Dichlorobenzyl)-2-[(3-methyl-1H-1,2,4-triazol-5-yl)methyl]-6-(trifluoromethyl)pyrimidin-4(3H)-one]: the values for the IC50 in test [1] and in test [2] were 72 nM and 630 nM, respectively.
Taken in the same sequence, the figures for `COc1cccc(Nc2nc(C(F)(F)F)c(Oc3ccc(Cl)c(C(F)(F)F)c3)c(=O)[nH]2)n1` [Example 100, 5-[4-Chloro-3-(trifluoromethyl)phenoxy]-2-[(6-methoxypyridin-2-yl)amino]-6-(trifluoromethyl)pyrimidin-4(3H)-one] were 65 nM and 920 nM.
`COc1cccc(Nc2nc(C(F)(F)F)c(Oc3ccc(Cl)c(Cl)c3)c(=O)[nH]2)n1` [Example 101, 5-(3,4-dichlorophenoxy)-2-[(6-methoxypyridin-2-yl)amino]-6-(trifluoromethyl)pyrimidin-4(3H)-one]: the IC50 in test [1] was 430 nM; in test [2] it was 11000 nM.
As to `COc1cccnc1Nc1nc(C(F)(F)F)c(Oc2ccc(Cl)c(Cl)c2)c(=O)[nH]1` [Example 102, 5-(3,4-dichlorophenoxy)-2-[(3-methoxypyridin-2-yl)amino]-6-(trifluoromethyl)pyrimidin-4(3H)-one], the results for the IC50 in test [1] and in test [2] were 150 nM and 260 nM, respectively.
Turning to `COc1cccnc1Nc1nc(C(F)(F)F)c(Oc2ccc(Cl)c(C(F)(F)F)c2)c(=O)[nH]1` [Example 103, 5-[4-chloro-3-(trifluoromethyl)phenoxy]-2-[(3-methoxypyridin-2-yl)amino]-6-(trifluoromethyl)pyrimidin-4(3H)-one], the figures for the IC50 in test [1] and in test [2] were 50 nM and 370 nM, respectively.
The matching figures for `O=c1[nH]c(Nc2cn[nH]c2)nc(C(F)(F)F)c1Oc1ccc(Cl)c(C(F)(F)F)c1` [Example 104, 5-[4-Chloro-3-(trifluoromethyl)phenoxy]-2-(1H-pyrazol-4-ylamino)-6-(trifluoromethyl)pyrimidin-4(3H)-one]: 9.4 nM and 160 nM.
Turning to `O=c1[nH]c(Nc2cn[nH]c2)nc(C(F)(F)F)c1Cc1ccc(Cl)c(C(F)(F)F)c1` [Example 105], the IC50 in test [1] worked out at 41 nM; in test [2], 380 nM.
Taken in the same sequence, the figures for `Cn1cnc(Nc2nc(C(F)(F)F)c(Oc3ccc(Cl)c(Cl)c3)c(=O)[nH]2)n1` [Example 106, 5-(3,4-dichlorophenoxy)-2-[(1-methyl-1H-1,2,4-triazol-3-yl)amino]-6-(trifluoromethyl)pyrimidin-4(3H)-one] were 180 nM and 1400 nM.
The matching figures for `Cc1cc(Nc2nc(C(F)(F)F)c(Oc3ccc(Cl)c(Cl)c3)c(=O)[nH]2)on1` [Example 109]: 59 nM and 480 nM.
Regarding `Cn1cc(Nc2nc(C(F)(F)F)c(Oc3ccc(Cl)c(Cl)c3)c(=O)[nH]2)cn1` [Example 110, 5-(3,4-dichlorophenoxy)-2-[(1-methyl-1H-pyrazol-4-yl)amino]-6-(trifluoromethyl)pyrimidin-4(3H)-one], the IC50 in test [1] came to 41 nM; in test [2], 730 nM.
The matching figures for `O=C1NCCN1c1nc(C(F)(F)F)c(Cc2ccc(Cl)c(Cl)c2)c(=O)[nH]1` [Example 111, 5-(3,4-Dichlorobenzyl)-2-(2-oxoimidazolidin-1-yl)-6-(trifluoromethyl)pyrimidin-4(3H)-one]: 59 nM and 360 nM.
The matching figures for `O=C1OCCN1c1nc(C(F)(F)F)c(Cc2ccc(Cl)c(Cl)c2)c(=O)[nH]1` [Example 112, 5-(3,4-Dichlorobenzyl)-2-(2-oxo-1,3-oxazolidin-3-yl)-6-(trifluoromethyl)pyrimidin-4(3H)-one]: 27 nM and 380 nM.
The matching figures for `O=c1[nH]c(CC2CCOCC2)nc(C(F)(F)F)c1Cc1ccc(Cl)c(Cl)c1` [Example 171]: 400 nM and 1000 nM.

As usually defined, the IC50 is the midpoint of a concentration-inhibition curve. High values mean weaker potency in that assay, low ones greater potency in that assay.
